This is an account of results in patent US11357748B2, “Methods for treating mendelian disorders of the epigenetic machinery” (THE JOHNS HOPKINS UNIVERSITY, priority 2014, dated 2022).

Data set [1] concerns H3K4 trimethylation activity in Kmt2d+/βGeo MEFs. As to the kind of experiment: H3K4me3 indicator in murine embryonic fibroblasts (MEFs) from Kmt2d+/βGeo and Kmt2d+/+ mice. Type of data set: cell-based, mouse. To be noted: FIG. 18H. An excerpt: (§1) An H3K4 trimethylation reporter was also created (FIG. 5B). This reporter is based on the H3 tail on one end and the TBP associated factor III (TAFIII) […] on the other end; the TAFIII […] only identifies and binds to trimethylated K4 on H3. When the H3K4 site gets trimethylated, the TAFIII […] can bind to the modified H3 tail and bring the two parts of the separated GFP in close proximity. The activity of the epigenetic modification system can be quantified through fluorescence.
Epigenetic reporter alleles were synthesized (OriGene, Rockville, Md.) using published sequences for component elements (Baird et al. (1999) Proc. Natl. Acad. Sci. 96:11241-6; Souslova et al. (2007) BMC Biotechnol. 7:37). Single nucleotide mutations were created using the QuickChange Lightening kit (Agilent Technologies Inc, Santa Clara, Calif.). For H4ac indicator, K5R, K8R, K12R, K16R and K20R (MUT indicator) were introduced. For H3K4me3 indicator, K4Q and D890A/W891A and M882A (three separate constructs) were introduced. […] FACS data were analyzed using FlowJo (Tree Star Inc, Ashland, Oreg.). […]
Epigenetic reporter systems were created that monitor either H4 acetylation or H3K4 trimethylation machinery activity in an effort to determine whether there is an ongoing activity deficiency in cells from Kmt2d^+/βGeo mice (FIG. 18A). Both reporter alleles encode halves of green fluorescent protein separated by a flexible linker region (Baird et al. (1999) Proc. Natl. Acad. Sci. 96: 11241-6) with a histone tail and a histone reader at the N- and C-termini, respectively. When the histone tail corresponding to either H4 or H3 is modified by acetylation or methylation, respectively, GFP structure and function are reconstituted, as detected by a fluorescent readout (FIG. 18B). The acetyl reporter protein quantifies the activity of the acetylation machinery (acetylation of H4 specifically at sites K5, K8, K12, and K16) and comprises an H4 tail (residues 1-30) on one end and a TATA binding protein (TBP)-associated factor II (TAFII) bromodomain on the other end (FIG. 18A). […]

Data set [2] deals with H3K4 trimethylation machinery (H3K4me3 indicator). As to the kind of experiment: H3K4 trimethylation (H3K4me3) indicator reporter allele, FACS. In kind it is cell-based.
Text: as §1
Epigenetic reporter alleles were synthesized (OriGene, Rockville, Md.) using published sequences for component elements (Baird et al. (1999) Proc. Natl. Acad. Sci. 96:11241-6; Souslova et al. (2007) BMC Biotechnol. 7:37). Single nucleotide mutations were created using the QuickChange Lightening kit (Agilent Technologies Inc, Santa Clara, Calif.). […] FACS data were analyzed using FlowJo (Tree Star Inc, Ashland, Oreg.). […]
Epigenetic reporter systems were created that monitor either H4 acetylation or H3K4 trimethylation machinery activity in an effort to determine whether there is an ongoing activity deficiency in cells from Kmt2d^+/βGeo mice (FIG. 18A). Both reporter alleles encode halves of green fluorescent protein separated by a flexible linker region (Baird et al. (1999) Proc. Natl. Acad. Sci. 96: 11241-6) with a histone tail and a histone reader at the N- and C-termini, respectively. […]

`CC(C)[C@H](C(=O)Nc1ccc(C(=O)NO)cc1)c1ccccc1` [AR-42, (S)—N-hydroxy-4-(3-methyl-2-phenylbutanamido)benzamide]: in data set [1] (Kmt2d+/βGeo MEFs, 22A, 23), the “H3K4 trimethylation activity in Kmt2d+/βGeo cells upon treatment” value is recorded as “enhanced”. In addition, in data set [1] (both genotypes (Kmt2d+/+ and Kmt2d+/βGeo)), the “H3K4me3 indicator activity in MEFs” value was “dose-dependent response”. Also, the “H3K4me3 indicator response to increasing levels of drug” value in data set [2] (FIG. 18F) is given as “dose dependent response”. In addition, in data set [2] (at higher doses, FIG. 18F (red line)), the cell numbers result is recorded as “decreased cell numbers”.
